Calls of active or inactive are those of the source. The rule behind the calls is not given here.
What was measured:
[1] = biological target: T1, Cyclin-dependent kinase 9 (Homo sapiens, UniProt P50750); assay: Induction of HyT-mediated degradation of CDK9 in human 22Rv1 cells at 0.3 to 3 uM incubated for 24 hrs by immunoblot analysis; assay type: cell-based; conditions: dose 0.3-3 µM
Cyclin-T1 [2] = biological target: T2, Cyclin-T1 (Homo sapiens, UniProt O60563); assay: Induction of HyT-mediated degradation of Cyclin T1 in human 22Rv1 cells at 0.3 to 3 uM incubated for 24 hrs by immunoblot analysis; assay type: cell-based; conditions: dose 0.3-3 µM
T2 sequence (O60563 whole entry): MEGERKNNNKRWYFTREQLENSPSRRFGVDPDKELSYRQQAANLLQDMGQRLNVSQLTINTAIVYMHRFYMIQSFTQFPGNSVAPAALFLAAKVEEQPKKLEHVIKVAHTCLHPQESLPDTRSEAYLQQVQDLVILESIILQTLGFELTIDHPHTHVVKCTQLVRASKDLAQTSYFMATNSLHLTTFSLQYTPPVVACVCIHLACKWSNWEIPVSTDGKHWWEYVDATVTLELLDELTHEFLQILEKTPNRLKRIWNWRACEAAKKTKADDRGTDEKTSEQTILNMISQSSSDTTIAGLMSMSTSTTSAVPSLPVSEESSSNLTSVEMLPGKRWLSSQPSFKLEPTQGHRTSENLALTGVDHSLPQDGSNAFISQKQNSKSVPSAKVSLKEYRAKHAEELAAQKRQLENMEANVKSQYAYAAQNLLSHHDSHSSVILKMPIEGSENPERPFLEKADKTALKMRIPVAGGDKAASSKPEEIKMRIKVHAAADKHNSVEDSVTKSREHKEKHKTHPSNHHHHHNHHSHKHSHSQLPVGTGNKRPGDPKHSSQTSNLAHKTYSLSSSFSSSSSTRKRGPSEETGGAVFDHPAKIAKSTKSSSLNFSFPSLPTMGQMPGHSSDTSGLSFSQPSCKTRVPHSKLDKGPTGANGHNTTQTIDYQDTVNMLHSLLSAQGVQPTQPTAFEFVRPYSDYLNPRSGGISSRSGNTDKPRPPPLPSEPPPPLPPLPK

Cyclin-T1 [3] = biological target: T2, Cyclin-T1; assay: Induction of Hyt-mediated degradation of cyclin T1 in human 22Rv1 cells assessed as downregulation of cyclin T1 level at 2 uM incubated for 24 hrs by DIA-based proteomics analysis; assay type: cell-based
[4] = biological target: T3, CDK9/cyclin T1 (Homo sapiens) (UniProt O60563+P50750); assay: Induction of CDK9/Cyclin T1 degradation in human 22Rv1 cells assessed as downregulation of c-Myc protein expression at 0.3 to 3 uM measured after 24 hrs by immunoblot analysis; assay type: cell-based; conditions: dose 0.3-3 µM
[5] = biological target: T1, Cyclin-dependent kinase 9; assay: Induction of Flag-tagged CDK9 (unknown origin) polyubiquitination expressed in HEK293T cells co-transfected with HA-tagged Cyclin T1 and Myc ubiquitin assessed as increase in K48-linkage poly-ubiqutinated CDK9 level at 1 to 2 uM incubated for 20 hrs by immunoprecipitation analysis; assay type: cell-based; conditions: dose 1-2 µM
[6] = biological target: T1, Cyclin-dependent kinase 9; assay: Induction of Flag-tagged CDK9 (unknown origin) polyubiquitination expressed in HEK293T cells co-transfected with HA-tagged Cyclin T1 and Myc ubiquitin assessed as increase in K48-linkage poly-ubiqutinated CDK9 level at 1 to 2 uM incubated for 20 hrs by western blot analysis; assay type: cell-based; conditions: dose 1-2 µM
CWR22R [7] = assay: Downregulation of CDK4 level in human 22Rv1 cells at 3 uM measured after 12 hrs by DIA-based proteomics analysis; assay type: functional, cell-based
[8] = biological target: T1, Cyclin-dependent kinase 9; assay: Induction of HyT-mediated degradation of CDK9 in human 22Rv1 cells at 3 uM measured for 36 hrs by DIA-based proteomics analysis; assay type: cell-based
Cyclin-T1 [9] = biological target: T2, Cyclin-T1; assay: Induction of HyT-mediated degradation of Cyclin T1 in human 22Rv1 cells at 3 uM measured for 36 hrs by DIA-based proteomics analysis; assay type: cell-based
Cyclin-T1 [10] = biological target: T2, Cyclin-T1; assay: Induction of HyT-mediated degradation of Cyclin T1 in human 22Rv1 cells assessed as reduction in Cyclin T1 protein level at 3 uM measured after 24 to 48 hrs by immunoblot analysis; assay type: cell-based; conditions: time 24-48 hrs
[11] = biological target: Cyclin-dependent kinase 1 (Homo sapiens) (UniProt P06493); assay: Induction of CDK1 degradation in human 22Rv1 cells assessed as downregulation of CDK1 level at 3 uM measured after 12 hrs by DIA-based proteomics analysis; assay type: cell-based
Sequence of Cyclin-dependent kinase 1 (Homo sapiens) (P06493 whole entry, looked up): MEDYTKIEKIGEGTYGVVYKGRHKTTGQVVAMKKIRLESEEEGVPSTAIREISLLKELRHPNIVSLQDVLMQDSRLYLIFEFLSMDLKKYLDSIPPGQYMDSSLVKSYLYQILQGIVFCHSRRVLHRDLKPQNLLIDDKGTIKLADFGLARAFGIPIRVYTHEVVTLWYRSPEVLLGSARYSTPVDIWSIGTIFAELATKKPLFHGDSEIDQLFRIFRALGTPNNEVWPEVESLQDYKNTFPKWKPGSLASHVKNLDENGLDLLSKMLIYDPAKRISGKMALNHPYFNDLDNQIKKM

[12] = biological target: Cyclin-dependent kinase 4 (Homo sapiens) (UniProt P11802); assay: Induction of CDK4 degradation in human 22Rv1 cells assessed as downregulation of CDK4 level at 3 uM measured after 12 hrs by DIA-based proteomics analysis; assay type: cell-based
Sequence of Cyclin-dependent kinase 4 (Homo sapiens) (P11802 whole entry): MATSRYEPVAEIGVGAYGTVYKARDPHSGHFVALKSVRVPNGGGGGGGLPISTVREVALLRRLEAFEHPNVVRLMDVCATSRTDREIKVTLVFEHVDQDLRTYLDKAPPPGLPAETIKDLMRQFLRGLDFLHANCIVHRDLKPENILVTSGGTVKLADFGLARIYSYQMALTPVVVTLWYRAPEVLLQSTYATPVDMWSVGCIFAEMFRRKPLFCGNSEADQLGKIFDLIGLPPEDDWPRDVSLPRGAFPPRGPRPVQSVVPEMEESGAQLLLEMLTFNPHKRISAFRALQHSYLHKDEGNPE

CWR22R [13] = assay: Downregulation of CDK7 level in human 22Rv1 cells at 3 uM measured after 12 hrs by DIA-based proteomics analysis; assay type: functional, cell-based
[14] = biological target: T3, CDK9/cyclin T1 (Homo sapiens); assay: Induction of CDK9/Cyclin T1 degradation in human 22Rv1 cells assessed as decrease in cyclin C protein expression at 3 uM measured for 36 hrs by DIA-based proteomics analysis; assay type: cell-based
[15] = biological target: T3, CDK9/cyclin T1 (Homo sapiens); assay: Induction of CDK9/Cyclin T1 degradation in human 22Rv1 cells assessed as downregulation of AR protein expression at 3 uM measured for 36 hrs by DIA-based proteomics analysis; assay type: cell-based
[16] = biological target: T3, CDK9/cyclin T1 (Homo sapiens); assay: Induction of CDK9/Cyclin T1 degradation in human 22Rv1 cells assessed as downregulation of AR protein expression at 2 uM measured after 24 hrs by immunoblot analysis; assay type: cell-based
[17] = biological target: T3, CDK9/cyclin T1 (Homo sapiens); assay: Induction of CDK9/Cyclin T1 degradation in human 22Rv1 cells assessed as downregulation of AR protein expression at 2 uM measured after 48 hrs by immunoblot analysis relative to control; assay type: cell-based
[18] = biological target: T3, CDK9/cyclin T1 (Homo sapiens); assay: Induction of CDK9/Cyclin T1 degradation in human 22Rv1 cells assessed as downregulation of AR-V7 splice variant protein expression at 2 uM measured after 24 hrs by immunoblot analysis; assay type: cell-based
[19] = biological target: T3, CDK9/cyclin T1 (Homo sapiens); assay: Induction of CDK9/Cyclin T1 degradation in human 22Rv1 cells assessed as downregulation of c-Myc protein expression at 2 uM measured after 48 hrs by immunoblot analysis; assay type: cell-based
[20] = biological target: T3, CDK9/cyclin T1 (Homo sapiens); assay: Induction of CDK9/Cyclin T1 degradation in human 22Rv1 cells assessed as downregulation of AR-V7 splice variant protein expression at 0.3 to 3 uM measured after 24 hrs by immunoblot analysis; assay type: cell-based; conditions: dose 0.3-3 µM
CWR22R [21] = assay: Induction of cell cycle arrest in human 22Rv1 cells assessed as accumulation of cells at G1 phase at 0.3 to 1 uM incubated for 24 hrs by propidium iodide staining based flow cytometry; assay type: functional; conditions: dose 0.3-1 µM
[22] = biological target: T3, CDK9/cyclin T1 (Homo sapiens); assay: Induction of CDK9/Cyclin T1 degradation in human 22Rv1 cells assessed as inhibition of Ser2 phosphorylation of RNA Pol II CTD at 0.3 to 3 uM incubated for 24 hrs by immunoblot analysis; assay type: cell-based; conditions: dose 0.3-3 µM
[23] = biological target: T3, CDK9/cyclin T1 (Homo sapiens); assay: Induction of CDK9/Cyclin T1 degradation in human 22Rv1 cells assessed as downregulation of MCL1 protein expression at 0.3 to 3 uM incubated for 24 hrs by immunoblot analysis; assay type: cell-based; conditions: dose 0.3-3 µM
[24] = biological target: T3, CDK9/cyclin T1 (Homo sapiens); assay: Induction of CDK9/Cyclin T1 degradation in human 22Rv1 cells assessed as downregulation of NAT1 gene expression at 2 uM incubated for 24 hrs by RNA-Seq based analysis; assay type: cell-based
[25] = biological target: T3, CDK9/cyclin T1 (Homo sapiens); assay: Induction of CDK9/Cyclin T1 degradation in human 22Rv1 cells assessed as downregulation of CDK20 gene expression at 2 uM incubated for 24 hrs by RNA-Seq based analysis; assay type: cell-based
[26] = biological target: T3, CDK9/cyclin T1 (Homo sapiens); assay: Induction of CDK9/Cyclin T1 degradation in human 22Rv1 cells assessed as downregulation of CDC6 gene expression at 2 uM incubated for 24 hrs by RNA-Seq based analysis; assay type: cell-based
[27] = biological target: T3, CDK9/cyclin T1 (Homo sapiens); assay: Induction of CDK9/Cyclin T1 degradation in human 22Rv1 cells assessed as downregulation of KLK2 gene expression at 2 uM incubated for 24 hrs by RNA-Seq based analysis; assay type: cell-based
[28] = biological target: T3, CDK9/cyclin T1 (Homo sapiens); assay: Induction of CDK9/Cyclin T1 degradation in human 22Rv1 cells assessed as downregulation of MYCL gene expression at 2 uM incubated for 24 hrs by RNA-Seq based analysis; assay type: cell-based
[29] = biological target: T3, CDK9/cyclin T1 (Homo sapiens); assay: Induction of CDK9/Cyclin T1 degradation in human 22Rv1 cells assessed as downregulation of IKBKE gene expression at 2 uM incubated for 24 hrs by RNA-Seq based analysis; assay type: cell-based
[30] = biological target: T3, CDK9/cyclin T1 (Homo sapiens); assay: Induction of CDK9/Cyclin T1 degradation in human 22Rv1 cells assessed as downregulation of MYCN gene expression at 2 uM incubated for 24 hrs by RNA-Seq based analysis; assay type: cell-based
[31] = biological target: T3, CDK9/cyclin T1 (Homo sapiens); assay: Induction of CDK9/Cyclin T1 degradation in human 22Rv1 cells assessed as downregulation of ZNF517 gene expression at 2 uM incubated for 24 hrs by RNA-Seq based analysis; assay type: cell-based
[32] = biological target: T3, CDK9/cyclin T1 (Homo sapiens); assay: Induction of CDK9/Cyclin T1 degradation in human 22Rv1 cells assessed as downregulation of TP53 gene expression at 2 uM incubated for 24 hrs by RNA-Seq based analysis; assay type: cell-based

T1 sequence (P50750 whole entry): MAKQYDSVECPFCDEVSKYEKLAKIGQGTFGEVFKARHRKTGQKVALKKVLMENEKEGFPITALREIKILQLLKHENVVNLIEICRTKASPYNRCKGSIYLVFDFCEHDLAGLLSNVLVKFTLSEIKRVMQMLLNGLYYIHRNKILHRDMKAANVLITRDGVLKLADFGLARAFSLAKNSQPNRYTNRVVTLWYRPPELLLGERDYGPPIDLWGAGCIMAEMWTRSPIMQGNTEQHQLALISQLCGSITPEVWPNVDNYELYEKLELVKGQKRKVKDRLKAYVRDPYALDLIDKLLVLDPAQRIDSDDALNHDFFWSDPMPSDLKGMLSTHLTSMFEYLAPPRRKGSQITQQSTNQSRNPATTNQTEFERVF

Structure (SMILES): CC(C)[C@@H]1CC[C@@H](C)C[C@H]1OCC(=O)NCCS(=O)(=O)N1CCC(C(=O)Nc2ncc(SCc3ncc(C(C)(C)C)o3)s2)CC1
- Activity [1]: Active
- Activity (Cyclin-T1 [2]): Active
- Activity (Cyclin-T1 [3]): Active
- Activity [4]: Active
- Activity [5]: Active
- Activity [6]: Active
- inhibition (CWR22R [7]): Active
- Activity [8]: Active
- Activity (Cyclin-T1 [9]): Active
- Activity (Cyclin-T1 [10]): Active
- Activity [11]: Active
- Activity [12]: Active
- inhibition (CWR22R [13]): Active
- Activity [14]: Active
- Activity [15]: Active
- Activity [16]: Active
- Activity [17]: 100%
- Activity [18]: Active
- Activity [19]: Active
- Activity [20]: Active
- Activity (CWR22R [21]): Active
- Activity [22]: Active
- Activity [23]: Active
- Activity [24]: Active
- Activity [25]: Active
- Activity [26]: Active
- Activity [27]: Active
- Activity [28]: Active
- Activity [29]: Active
- Activity [30]: Active
- Activity [31]: Active
- Activity [32]: Active
